Reference: ChEMBL document CHEMBL3244292, “Imidazo[4,5-f]quinolines. 2. A series of 9-(substituted amino)imidazo[4,5-f]quinolines as antitapeworm agents” (1977)
Active and inactive are the calls of the source. No cut-off for these calls is given here.

Tests used:
Rodentolepis nana [1] = experiment: Anthelmintic activity against Hymenolepis nana infected in mouse assessed as reduction in worm burden at 100 mg/kg administered bid for 3 days relative to control; type: functional; set-up: scale not given: the % may be the effect or the level left
Rodentolepis nana [2] = experiment: Anthelmintic activity against Hymenolepis nana infected in mouse assessed as reduction in worm burden at 50 mg/kg administered bid for 3 days relative to control; type: functional; set-up: scale not given: the % may be the effect or the level left
Rodentolepis nana [3] = experiment: Anthelmintic activity against Hymenolepis nana infected in mouse assessed as reduction in worm burden at 25 mg/kg administered bid for 3 days relative to control; type: functional; set-up: scale not given: the % may be the effect or the level left
Rodentolepis nana [4] = experiment: Anthelmintic activity against Hymenolepis nana infected in mouse assessed as reduction in worm burden at 10 mg/kg administered bid for 3 days relative to control; type: functional, organism-based; set-up: dose 10 mg/kg

Row | Compound | Activity (Rodentolepis nana [1]) [%] | Activity (Rodentolepis nana [2]) [%] | Activity (Rodentolepis nana [3]) [%] | Activity (Rodentolepis nana [4])
1 | CCCC(C)Oc1ccc(Nc2cc(C)nc3ccc4nc[nH]c4c23)cc1OC(C)CCC (configuration not stated) | 100 | 100 | 92 | inactive
2 | CCCCCCOc1ccc(C(=N)N(CCCC)CCCC)c2ccccc12 [BUNAMIDINE] | 100 | 59 | 30 | inactive
3 | COc1cc(Nc2cc(C)nc3ccc4nc[nH]c4c23)c(OC)cc1Cl | 100 | 72 | 100 | inactive
4 | CCCCOc1cc(Nc2cc(C)nc3ccc4nc[nH]c4c23)c(OCCCC)cc1Cl | 100 | 84 | 74 | inactive
5 | Cc1cc(Nc2ccc(OCCC(C)C)c(OCCC(C)C)c2)c2c(ccc3nc[nH]c32)n1 | 100 | 100 | 67 | inactive
6 | Cc1cc(Nc2ccc(OCC(C)C)c(OCC(C)C)c2)c2c(ccc3nc[nH]c32)n1 | 100 | 78 | 77 | inactive
7 | CC(=O)c1ccc(Nc2cc(C)nc3ccc4nc[nH]c4c23)cc1 | 100 | 100 | 56 | inactive
8 | Cc1cc(Nc2ccc(N3CCN(Cc4ccccc4)CC3)c(Cl)c2)c2c(ccc3nc[nH]c32)n1 | 100 | 100 | 77 | inactive
